# Values of other authors, collected in patent publication US20170143824A1 (Teva Pharmaceutical Industries, Ltd., priority 2013, published 2017).
# System: patients with RRMS
# Conditions: registration trials, compared with placebo
substance,measurement,value
"L-glutamic acid polymer with L-alanine, L-lysine, L-tyrosine, acetate (salt) [glatiramer acetate]",reduction of relapse rate,about one third
